Experimental findings from patent US20240174641A1, “HETEROCYCLIC COMPOUNDS CAPABLE OF […]” (Boehringer Ingelheim International GmbH, priority 2022, published 2024) are described below.

Assay [1] has as its system dog STING (dSTING). The experiment in a line: Dog differential scanning fluorimetry (DSF) assay, thermal shift of dog STING protein. Conditions: DSF (dDSF); 100 μM compound, 3 μM dog STING protein; Tm with ligand minus Tm of protein alone. Format: binding. The text has this:
The protein used for the biophysical experiments was a recombinant dog STING protein comprising its cytosolic cGAMP binding ectodomain. A codon optimized DNA sequence (for expression in Escherichia coli) encoding amino acid residues 149 to 375 of dog STING was synthesized by GeneArt (Regensburg, Germany) and inserted into a pET17b E. coli expression vector. The protein construct encodes an N-terminal 8×His-tag followed by tobacco etch virus protease (TEV) cleavage site and the above STING gene sequence. The resulting protein sequence for the used dog STING protein (SEQ ID No. 1) is listed below:
For expression of the above recombinant dog STING, the construct was transformed into E. coli BL21 DE3 strain and grown in shake flasks in LB-medium at 15° C. Expression was induced by addition of isopropyl β-D-1-thiogalactopyranoside to a final concentration of 1 mM and cultures shaken overnight. Cell pellets were centrifuged and stored at −70° C. until further use. Protein was purified by cell thawing in lysis buffer (20 mM TRIS-HCl, pH 8, 500 mM NaCl, 1 mM DTT, 0.5 mg/ml lysozyme, Complete Protease Inhibitor (Roche) and DNase (Roche)), followed by metal affinity purification using Ni-NTA resins and elution buffer consisting of 20 mM TRIS-HCl, pH 8, 500 mM NaCl, 1 mM DTT, 300 mM imidazole. Cleavage of the His-Tag using TEV-protease took place during dialysis in size exclusion buffer (20 mM TRIS-HCl, pH 8, 100 mM NaCl, 1 mM DTT) over night. To further purify the target protein a reverse Nickel affinity column was used and the flow through was applied to a size exclusion chromatography. The peak fraction was collected and concentrated to 5 mg/mL.
Dye fluorescence is quenched in aqueous environment and increases upon association of the dye with the hydrophobic parts of the unfolding protein. […] The inflection point of the curve represents the “melting” temperature of the protein (Tm) which is calculated numerically using the Boltzmann equation.
The thermal stability of the dog STING protein was measured in assay buffer containing 20 mM Tris, 150 mM NaCl at pH7.5. The assay uses 384-Well qPCR Plates (Catalog #781358, BRAND), Microseal® ‘B’ Adhesive Seals for PCR Plates (Catalog #MSB-1001, BIO-RAD) and was run on a CFX384 Real-Time System (Bio-Rad). A DMSO stock solution of SYPRO orange (SIGMA 55692-500UL) was prepared. Compound stock solutions (10 mM in DMSO) were diluted 1:2 in DMSO to an intermediate compound concentration of 5 mM and then further diluted 1:40 in assay buffer resulting in a compound concentration of 125 μM and 2.5% DMSO. Fluorescent dye stock solution (5000×SYPRO Orange) was then mixed with target protein and buffer to a concentration of 15 μM Protein and 25×SYPRO Orange. 2 μl of this protein-dye-mixture was added to 8 μl compound solution. Final volume was 10 μL. 3-6 well positions were used as negative control (protein with 2% DMSO). The plates were prepared for duplicate measurement and centrifuged for 2 min at 1000 g. In the measurement, 160 cycles of 0.5° C. were used (temperature ramp 15 s/cycle, 15° C. to 95° C.).
Final Assay concentrations for compound characterization were 100 μM compound, 3 μM target protein, 5×SYPRO Orange, and 2% DMSO in 10 μl. All dispensing steps were performed using a HamiltonStar pipetting robot (Hamilton).
Dissociation curves were processed in Bio-Rad CFX Manager. Peak type was set to “negative”. Compound codes for screen were assigned in the plate layout.
Two replicates of TM measurements were averaged, and the standard deviation was calculated. In cases of SD>1.5° C. the measurement was repeated.
The melting point (Tm) obtained for STING protein alone was subtracted from T obtained for protein incubated with ligand to generate ΔTm values.
Background: In DSF a fluorescence change marks the thermal transition of the protein.

Assay [2] deals with STING (Canis lupus familiaris, UniProt A0A8I3MH52). Put plainly: Dog whole blood (dWB) assay, IFNb secretion by ELISA. Format: cell-based. The settings on record: canine Interferon-beta (IFNb) ELISA, 4 h incubation at 37° C. Here is the method:
For the detection of STING activation in physiological environment dog whole blood (dWB) was stimulated by the cyclic dinucleotide cGAMP or a test compound. Pathway activity was monitored by measuring the IFNb production.
Compounds were delivered as 10 mM DMSO solution, diluted and transferred by using an Echo acoustic dispenser to the 384 well assay plate (Greiner #781182), pre-filled with 10 μl 1×HBSS in each well (10×HBSS (+Ca/+Mg), #14065-049, Gibco). Typically, 8 concentrations were used with the highest concentration at 10 μM in the final assay volume followed by approximately 1:4 dilution steps. DMSO concentration was set to 0.1% in the final assay volume. The 384-well assay plate contained 20 test compounds and DMSO in control and cGAMP standard wells. The dog whole blood was collected as Na-Citrate blood (e.g., 3.8% in Monovettes from Sarstedt) and kept at 4° C. overnight until use in the assay. 80 μl of the whole blood samples were transferred to each well of the 384-well assay plates filled with compound/1×HBSS. Blood plates were kept at room temperature for 60 minutes and continuous shaking with 450 rpm, covered with the lid, but not sealed. A 10×cGAMP assay solution was diluted from a 2 mM stock solution in 1×HBSS immediately before use at room temperature. 10 μl of the 10×cGAMP/HBSS were added to the high control wells, whereas HBSS only was added to all compound and low control wells. After covering assay plates with the lid, blood plates were kept for a 4 h incubation at 37° C. in the incubator, without shaking. For the detection of IFNb in dog plasma the ELISA Kit for Canine Interferon Beta (Biotrend #SEA222Ca) was used. Whole blood assay plates were centrifuged at 1000 g for 10 minutes at 8° C. […] was transferred with a 96 well pipetting robotics from the 384 well whole blood plate to the corresponding 96 well ELISA plate, pre-filled with 60 μl assay diluent in each well. Plates were sealed with microplate seals and kept at 4° C. overnight again. ELISA plates were brought to room temperature, followed by a 1 h incubation at 37° C. in the incubator. Detection Reagent A working solution was prepared by diluting Detection Reagent A 1:100 in Assay Reagent A. Liquid was then removed from the 96 well ELISA plate to add 100 μL Detection Reagent A working solution to each well. ELISA plates were covered with the plate sealer and incubated for 1 hour at 37° C. in the incubator. The 1× Wash buffer was prepared by diluting the 30× Wash Buffer Concentrate in H2O. Detection Reagent B working solution was prepared by diluting Detection Reagent B 1:100 in Assay Reagent B. The ELISA plates were washed three times with 350 μl wash buffer and afterwards inverted and blotted against absorbent paper to remove any liquid. 100 μL of Detection Reagent B working solution was added to each well of the ELISA plates, which are then covered with the plate sealer and incubated for 30 minutes at 37° C. in the incubator. After incubation the ELISA assay plates were washed five times with 350 μl wash buffer and were again inverted and blotted against absorbent paper to remove any remaining liquid. 90 μL of TMB Substrate was added to each well of the ELISA plates, which were then covered with the plate sealer and incubated for 15 minutes at 37° C. in the incubator. The reaction was stopped by adding 50 μL stop solution and absorbance was measured at 450 nm immediately.
For data evaluation and calculation, % control calculation of each well was based on the mean of high (cGAMP stimulated control) and mean of low (unstimulated control) controls by using the following standard 4 parameter logistic regression formula:
[y=(a−d)/(1+(x/c)^b)+d] • a=low value, • d=high value, • x=conc M, • c=EC50 M, • b=slope. Dog Liver Microsome (dLM) Assay
In general terms: ELISA stands for enzyme-linked immunosorbent assay.

Chain of STING (A0A8I3MH52 1-374): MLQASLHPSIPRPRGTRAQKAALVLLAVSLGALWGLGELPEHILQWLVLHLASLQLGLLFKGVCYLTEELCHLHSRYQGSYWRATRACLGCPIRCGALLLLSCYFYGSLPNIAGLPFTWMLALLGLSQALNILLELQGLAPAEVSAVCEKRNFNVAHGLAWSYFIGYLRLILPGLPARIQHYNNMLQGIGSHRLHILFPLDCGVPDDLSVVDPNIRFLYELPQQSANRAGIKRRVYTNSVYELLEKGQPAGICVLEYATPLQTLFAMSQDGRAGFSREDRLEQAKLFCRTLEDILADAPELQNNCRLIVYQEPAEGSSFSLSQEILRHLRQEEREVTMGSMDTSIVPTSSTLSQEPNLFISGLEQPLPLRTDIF

The term EC50 denotes the concentration that produces a half-maximal response. Lower therefore signals a more potent agent. Take `Cc1cccc2c(-c3c(Cl)ccc4nn(C)cc34)nn(-c3ccc(N4C[C@@H]5[C@H](C4)[C@H]5C(=O)O)nc3)c12` [Example 77, (1R,5S,6S)-3-(5-{5″-chloro-2″,7-dimethyl-1H,2″H-[3,4″-biindazol]-1-yl}pyridin-2-yl)-3-azabicyclo[3.1.0]hexane-6-carboxylic acid]: the “Delta TM” value in assay [1] was found to be 27.4 °C. This compound displayed a 50% effective concentration (EC50) in assay [2] of 1090 nM.

For `CC(=O)N1C[C@@H]2C[C@H]1CN2c1ccc(-n2nc(-c3cccc4nn(C)c(F)c34)c3cccc(C)c32)cn1` [Example 21, 1-[(1S,4S)-5-(5-{3″-fluoro-2″,7-dimethyl-1H,2″H-[3,4″-biindazol]-1-yl}pyridin-2-yl)-2,5-diazabicyclo[2.2.1]heptan-2-yl]ethan-1-one], the “Delta TM” value in assay [1] is 24.9 °C. The compound further yielded a half-maximal effective concentration (EC50) in assay [2] of 1010 nM.

Take `Cc1cccc2c(-c3cccc4nn(C)c(F)c34)nn(-c3ccc(N4CCC(C(=O)O)CC4)nc3)c12` [Example 2, 1-(5-{3″-Fluoro-2″,7-dimethyl-1H,2″H-[3,4″-biindazol]-1-yl}pyridin-2-yl)piperidine-4-carboxylic acid]: the “Delta TM” value in assay [1] came out at 34.5 °C. The same compound yielded a 50% effective concentration (EC50) in assay [2] of 236 nM.

As for `Cc1cccc2c(-c3ccc(F)c4nn(C)cc34)nn(-c3ccc(N4C[C@@H]5[C@H](C4)[C@H]5C(=O)O)nc3)c12` [Example 3, (1R,5S,6R)-3-(5-{7″-Fluoro-2″,7-dimethyl-1H,2″H-[3,4″-biindazol]-1-yl}pyridin-2-yl)-3-azabicyclo[3.1.0]hexane-6-carboxylic acid], the “Delta TM” value in assay [1] worked out at 32.2 °C. Besides, the EC50 in assay [2] stood at 730 nM. In the same order, the values of `CC(=O)N1CCN(c2ccc(-n3nc(-c4cccc5nn(C)c(F)c45)c4cccc(C)c43)cn2)CC1` [Example 8, 1-[4-(5-{3″-Fluoro-2″,7-dimethyl-1H,2″H-[3,4″-biindazol]-1-yl}pyridin-2-yl)piperazin-1-yl]ethan-1-one] are 32.5 °C and 168 nM. In the same order, the values of `Cc1cccc2c(-c3ccc(F)c4nn(C)c(F)c34)nn(-c3ccc(N4C[C@@H]5[C@H](C4)[C@H]5C(=O)O)nc3)c12` [Example 13, (1R,5S,6R)-3-(5-{3″,7″-Difluoro-2″,7-dimethyl-1H,2″H-[3,4″-biindazol]-1-yl}pyridin-2-yl)-3-azabicyclo[3.1.0]hexane-6-carboxylic acid] are 33.3 °C and 174 nM. Turning to `CC(=O)N1C[C@H]2C[C@@H]1CN2c1ccc(-n2nc(-c3c(F)cc(F)c4nn(C)cc34)c3cccc(C)c32)cn1` [Example 51, 1-[(1R,4R)-5-(5-{5″,7″-difluoro-2″,7-dimethyl-1H,2″H-[3,4″-biindazol]-1-yl}pyridin-2-yl)-2,5-diazabicyclo[2.2.1]heptan-2-yl]ethan-1-one], the “Delta TM” value in assay [1] was determined as 29.0 °C. In assay [2], this compound yielded an EC50 of 670 nM.

`Cc1cccc2c(-c3c(F)cc(F)c4nn(C)cc34)nn(-c3ccc(N4C[C@H]5C[C@@H]4C[C@@H]5C(=O)O)nc3)c12` (single isomer, unassigned) [Example 47-2]: the “Delta TM” value in assay [1] came to 35.5 °C. Moreover, the midpoint of the response in assay [2], the EC50, lay at 200 nM. Consider `Cc1cccc2c(-c3cc(F)cc4nn(C)cc34)nn(-c3ccc(N4CCC(C(=O)O)CC4)nc3)c12` [Example 33, 1-(5-{6″-fluoro-2″,7-dimethyl-1H,2″H-[3,4″-biindazol]-1-yl}pyridin-2-yl)piperidine-4-carboxylic acid], for which the “Delta TM” value in assay [1] was determined as 22.5 °C.

For the compound `Cc1cccc2c(-c3cc(F)cc4nn(C)cc34)nn(-c3ccc(N4C[C@H]5C[C@@H]4C[C@@H]5C(=O)O)nc3)c12` (single isomer, unassigned) [Example 38-2], the “Delta TM” value in assay [1] is 23.0 °C. On the same count and under the same terms, the result for `Cc1cccc2c(-c3cc(F)cc4nn(C)c(F)c34)nn(-c3ccc(N4C[C@@H]5[C@H](C4)[C@H]5C(=O)O)nc3)c12` [Example 75, (1R,5S,6R)-3-(5-{3″,6″-difluoro-2″,7-dimethyl-1H,2″H-[3,4″-biindazol]-1-yl}pyridin-2-yl)-3-azabicyclo[3.1.0]hexane-6-carboxylic acid] reads 21.8 °C. Same read-out and setting: the result for `Cc1cccc2c(-c3c(F)ccc4nn(C)cc34)nn(-c3ccc(N4CC5CCC4CC5C(=O)O)nc3)c12` (single isomer, unassigned) [Example 28-1] reads 26.6 °C. On the same count and under the same terms, under `CC(=O)N1C[C@@H]2C[C@H]1CN2c1ccc(-n2nc(-c3cc(F)cc4nn(C)cc34)c3cccc(C)c32)cn1` [Example 41, 1-[(1S,4S)-5-(5-{6″-fluoro-2″,7-dimethyl-1H,2″H-[3,4″-biindazol]-1-yl}pyridin-2-yl)-2,5-diazabicyclo[2.2.1]heptan-2-yl]ethan-1-one] stands 16.0 °C; under `Cc1cccc2c(-c3cccc4nn(C)c(F)c34)nn(-c3ccc(N4CC5CCC4CC5C(=O)O)nc3)c12` (single isomer, unassigned) [Example 20-1, 2-(5-{3'-fluoro-2',7-dimethyl-1H,2'H-[3,4'-biindazol]-1-yl}pyridin-2-yl)-2-azabicyclo[2.2.2]octane-5-carboxylic acid], 20.9 °C.
